# Results: ChEMBL document CHEMBL5257076, “Design, synthesis, structure-activity relationship studies, and evaluation of novel GLS1 inhibitors” (Bioorg Med Chem Lett, 2023)
# Active and inactive are the calls of the source. The rule behind the calls is not given here.
# Legend:
# [1] = biological target: T1, Glutaminase kidney isoform, mitochondrial (Mus musculus) (UniProt D3Z7P3); assay: Inhibition of GLS1 in mouse kidney extract at 10 mM; type: tissue-based
# T1 sequence (whole entry): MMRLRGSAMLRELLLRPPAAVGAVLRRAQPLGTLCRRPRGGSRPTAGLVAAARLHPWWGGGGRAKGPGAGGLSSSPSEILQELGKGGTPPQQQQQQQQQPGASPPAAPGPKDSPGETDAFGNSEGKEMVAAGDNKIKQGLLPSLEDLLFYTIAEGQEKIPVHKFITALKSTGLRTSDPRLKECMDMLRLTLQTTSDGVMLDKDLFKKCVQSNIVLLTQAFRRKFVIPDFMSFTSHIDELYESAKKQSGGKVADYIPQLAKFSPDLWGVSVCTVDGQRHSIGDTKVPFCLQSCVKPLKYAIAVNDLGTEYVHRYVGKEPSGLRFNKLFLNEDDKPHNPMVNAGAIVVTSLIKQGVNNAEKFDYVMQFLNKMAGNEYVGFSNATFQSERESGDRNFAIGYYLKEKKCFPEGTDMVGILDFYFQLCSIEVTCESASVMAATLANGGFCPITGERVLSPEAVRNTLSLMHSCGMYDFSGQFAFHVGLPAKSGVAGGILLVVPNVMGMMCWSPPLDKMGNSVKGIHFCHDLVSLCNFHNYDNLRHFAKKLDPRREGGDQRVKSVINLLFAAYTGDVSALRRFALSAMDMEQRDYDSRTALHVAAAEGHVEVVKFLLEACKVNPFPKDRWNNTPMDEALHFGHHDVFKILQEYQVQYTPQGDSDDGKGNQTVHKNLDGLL
# [2] = biological target: T2, Glutaminase kidney isoform, mitochondrial (Homo sapiens) (UniProt O94925); assay: Inhibition of human recombinant GLS1 at 10 mM relative to control
# T2 sequence (whole entry): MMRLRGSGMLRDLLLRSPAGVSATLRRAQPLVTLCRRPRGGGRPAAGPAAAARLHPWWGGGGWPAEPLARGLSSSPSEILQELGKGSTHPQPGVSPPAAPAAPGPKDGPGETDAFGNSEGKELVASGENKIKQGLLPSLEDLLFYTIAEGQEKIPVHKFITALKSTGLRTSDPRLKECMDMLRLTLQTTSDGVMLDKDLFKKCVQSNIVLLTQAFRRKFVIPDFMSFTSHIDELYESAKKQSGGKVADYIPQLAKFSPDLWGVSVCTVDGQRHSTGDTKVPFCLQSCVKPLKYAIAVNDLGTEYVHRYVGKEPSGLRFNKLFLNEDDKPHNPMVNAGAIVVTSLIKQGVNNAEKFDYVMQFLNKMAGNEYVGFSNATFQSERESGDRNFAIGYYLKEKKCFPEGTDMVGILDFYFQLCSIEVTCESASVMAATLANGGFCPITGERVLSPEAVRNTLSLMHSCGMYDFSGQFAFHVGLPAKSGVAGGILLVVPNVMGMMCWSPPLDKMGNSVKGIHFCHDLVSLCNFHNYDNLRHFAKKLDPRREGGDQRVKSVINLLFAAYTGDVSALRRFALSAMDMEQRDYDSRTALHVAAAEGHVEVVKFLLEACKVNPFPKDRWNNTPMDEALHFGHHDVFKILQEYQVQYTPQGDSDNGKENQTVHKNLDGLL
# [3] = biological target: T1, Glutaminase kidney isoform, mitochondrial (Mus musculus); assay: Inhibition of GLS1 in mouse kidney extract at 10 mM relative to control; type: tissue-based
# [4] = biological target: T1, Glutaminase kidney isoform, mitochondrial (Mus musculus); assay: Inhibition of mouse recombinant GLS1 relative to control; details: concentration not given here
# [5] = biological target: T1, Glutaminase kidney isoform, mitochondrial (Mus musculus); assay: Inhibition of mouse recombinant GLS1 glutaminase activity at 1 mM
# [6] = biological target: T1, Glutaminase kidney isoform, mitochondrial (Mus musculus); assay: Inhibition of GLS1 in mouse kidney extract at 1 mM relative to control; type: tissue-based
# [7] = biological target: T2, Glutaminase kidney isoform, mitochondrial (Homo sapiens); assay: Inhibition of human recombinant GLS1 at 1 mM relative to control
Compound,inhibition [1],further results
O=C(c1cc(Cc2ccccc2)n[nH]1)N1CCC(O)CC1,inactive,
O=C(N[C@H]1CC[C@H](O)CC1)c1ccc(-c2ccccc2)[nH]1,inactive,
O=C(Nc1ccccc1)c1cc(Cc2ccccc2)n[nH]1,inactive,
CON(C)C(=O)c1cc(Cc2ccccc2)n[nH]1,inactive,
O=C(N[C@H]1CC[C@H](O)CC1)c1cc(Cc2ccc(F)cc2)n[nH]1,,inhibition [2]: 94.6%; inhibition [3]: 90.1%; inhibition [4]: 73.2%
[N-]=[N+]=CC(=O)CC[C@H](N)C(=O)O,,inhibition [5]: Active; inhibition [6]: 65.5%; inhibition [7]: 84.1%; inhibition [4]: 55.5%
CN(C)C(=O)c1cc(Cc2ccccc2)n[nH]1,inactive,
O=C(c1cc(Cc2ccccc2)n[nH]1)N1CCCCCC1,inactive,
O=C1CCC(NC(=O)c2cc(Cc3ccccc3)n[nH]2)CC1,inactive,
NNC(=O)c1cc(-c2ccccc2)n[nH]1,,inhibition [3]: 52.6%
O=C(NCCO)c1cc(Cc2ccccc2)n[nH]1,inactive,
O=C(c1cc(Cc2ccccc2)n[nH]1)N1CCCC1,inactive,
O=C(N[C@H]1CC[C@H](O)CC1)c1cc(-c2ccccc2)n[nH]1,,inhibition [2]: 97.1%; inhibition [3]: 93.3%; inhibition [4]: 81.4%
CNC(=O)c1cc(Cc2ccccc2)n[nH]1,inactive,
O=C(c1cc(Cc2ccccc2)n[nH]1)N1CCOCC1,inactive,
O=C(N[C@H]1CC[C@H](O)CC1)c1ncc(-c2ccccc2)[nH]1,Active,
O=C(c1cc(Cc2ccccc2)n[nH]1)N1CCCCC1,inactive,
O=C(N[C@H]1CC[C@H](O)CC1)c1cc(-c2ccccc2)c[nH]1,inactive,
O=C(N[C@H]1CC[C@H](O)CC1)c1cc(CCc2ccccc2)n[nH]1,,inhibition [3]: 58.6%
O=C(N[C@H]1CC[C@H](O)CC1)c1cc(Cc2ccccc2)n[nH]1,,inhibition [3]: 99.4%; inhibition [4]: 19.7%
